ChEMBL document CHEMBL1201862, “PubChem BioAssay data set” (2004)
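Following 48 hours of exposure in 96-well plates, responses at five concentrations were used to interpolate endpoints linearly. GI50 = concentration required for 50% inhibition of growth.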 The source made the active and inactive calls. Rule as the data show it: active = GI50 up to about 1.1 µM and inactive = higher.

Legend:
Test in all cases: growth of human tumour cells (NCI), 48 h
A498 = system: A498
A549 = system: A549
CAKI-1 = system: CAKI-1
EKVX = system: EKVX
HCT-15 = system: HCT-15
M14 = system: M14
MOLT-4 = system: MOLT-4
NCI-H226 = system: NCI-H226
NCI-H23 = system: NCI-H23
OVCAR-3 = system: OVCAR-3
OVCAR-8 = system: OVCAR-8
RPMI-8226 = system: RPMI-8226
SF-295 = system: SF-295
SK-MEL-5 = system: SK-MEL-5
TK-10 = system: TK-10
UO-31 = system: UO-31
SK-MEL-28 = system: SK-MEL-28

CCc1c(OC(C)=O)c2c(NC3OC(COC(C)=O)C(OC(C)=O)C(OC(C)=O)C3OC(C)=O)nc(OC)nc2oc1=O (stereo not given)
GI50 (A498): > 100 µM (inactive) | GI50 (A549): > 100 µM (inactive) | GI50 (CAKI-1): > 100 µM (inactive) | GI50 (EKVX): > 100 µM (inactive) | GI50 (HCT-15): > 100 µM | GI50 (M14): > 100 µM (inactive) | GI50 (MOLT-4): > 100 µM (inactive) | GI50 (NCI-H226): > 100 µM (inactive) | GI50 (NCI-H23): > 100 µM (inactive) | GI50 (OVCAR-3): > 100 µM (inactive) | GI50 (OVCAR-8): > 100 µM (inactive) | GI50 (RPMI-8226): > 100 µM (inactive) | GI50 (SF-295): > 100 µM (inactive) | GI50 (SK-MEL-5): > 100 µM (inactive) | GI50 (TK-10): > 100 µM (inactive) | GI50 (UO-31): > 100 µM (inactive)

Cc1ccc(S(=O)(=O)N/N=C\c2c3ccccc3[n+](C)c3ccccc23)cc1
GI50 (A498): 20.4 µM (inactive) | GI50 (A549): 20.8 µM (inactive) | GI50 (CAKI-1): 17.7 µM (inactive) | GI50 (EKVX): 54.6 µM (inactive) | GI50 (HCT-15): 25.8 µM | GI50 (M14): 26 µM (inactive) | GI50 (MOLT-4): 17.6 µM (inactive) | GI50 (NCI-H226): 25 µM (inactive) | GI50 (NCI-H23): 21.1 µM (inactive) | GI50 (OVCAR-3): 26.1 µM (inactive) | GI50 (OVCAR-8): 38.5 µM (inactive) | GI50 (RPMI-8226): 29.8 µM (inactive) | GI50 (SF-295): 13.8 µM (inactive) | GI50 (SK-MEL-28): 31.5 µM (inactive) | GI50 (SK-MEL-5): 29.4 µM (inactive) | GI50 (TK-10): 48.3 µM (inactive) | GI50 (UO-31): 26.9 µM (inactive)

O=C(O/N=C1/CCCC/C1=C\c1ccccc1)c1ccc(Cl)cc1
GI50 (A549): > 100 µM (inactive) | GI50 (CAKI-1): 84.5 µM (inactive) | GI50 (EKVX): 42.1 µM (inactive) | GI50 (HCT-15): > 100 µM | GI50 (M14): > 100 µM (inactive) | GI50 (NCI-H226): > 100 µM (inactive) | GI50 (NCI-H23): > 100 µM (inactive) | GI50 (OVCAR-3): > 100 µM (inactive) | GI50 (OVCAR-8): > 100 µM (inactive) | GI50 (RPMI-8226): > 100 µM (inactive) | GI50 (SF-295): 47.4 µM (inactive) | GI50 (SK-MEL-28): > 100 µM (inactive) | GI50 (SK-MEL-5): 89.7 µM (inactive) | GI50 (TK-10): > 100 µM (inactive) | GI50 (UO-31): > 100 µM (inactive)

CCN(CC)CCC(=O)Nc1ccc2c(c1)C(=O)c1ccc(NC(=O)CCN(CC)CC)cc1C2=O
GI50 (A498): 5.79 µM (inactive) | GI50 (A549): 5.18 µM (inactive) | GI50 (CAKI-1): 4.43 µM (inactive) | GI50 (EKVX): 3.25 µM (inactive) | GI50 (HCT-15): 2.97 µM | GI50 (M14): 13.8 µM (inactive) | GI50 (MOLT-4): 2.07 µM (inactive) | GI50 (NCI-H226): 0.308 µM (active) | GI50 (NCI-H23): 8.2 µM (inactive) | GI50 (OVCAR-8): 4.16 µM (inactive) | GI50 (RPMI-8226): 4.17 µM (inactive) | GI50 (SF-295): 11.3 µM (inactive) | GI50 (SK-MEL-28): 12.2 µM (inactive) | GI50 (SK-MEL-5): 7.08 µM (inactive) | GI50 (TK-10): 5.01 µM (inactive) | GI50 (UO-31): 84.1 µM (inactive)

CC1(C)OCN(c2ccc(N3CCOCC3)cc2)Cn2c1nc1ccccc12
GI50 (A498): > 100 µM (inactive) | GI50 (A549): > 100 µM (inactive) | GI50 (EKVX): > 100 µM (inactive) | GI50 (HCT-15): > 100 µM | GI50 (M14): > 100 µM (inactive) | GI50 (MOLT-4): > 100 µM (inactive) | GI50 (NCI-H226): 55.3 µM (inactive) | GI50 (NCI-H23): > 100 µM (inactive) | GI50 (OVCAR-3): > 100 µM (inactive) | GI50 (OVCAR-8): > 100 µM (inactive) | GI50 (RPMI-8226): 27.9 µM (inactive) | GI50 (SF-295): > 100 µM (inactive) | GI50 (SK-MEL-28): > 100 µM (inactive) | GI50 (TK-10): > 100 µM (inactive) | GI50 (UO-31): > 100 µM (inactive)

c1cnc2nc3n(c2c1)CSC3
GI50 (A498): > 100 µM (inactive) | GI50 (A549): > 100 µM (inactive) | GI50 (CAKI-1): > 100 µM (inactive) | GI50 (EKVX): > 100 µM (inactive) | GI50 (HCT-15): > 100 µM | GI50 (M14): > 100 µM (inactive) | GI50 (MOLT-4): > 100 µM (inactive) | GI50 (NCI-H226): > 100 µM (inactive) | GI50 (NCI-H23): > 100 µM (inactive) | GI50 (OVCAR-3): > 100 µM (inactive) | GI50 (OVCAR-8): > 100 µM (inactive) | GI50 (RPMI-8226): > 100 µM (inactive) | GI50 (SF-295): > 100 µM (inactive) | GI50 (SK-MEL-28): > 100 µM (inactive) | GI50 (SK-MEL-5): > 100 µM (inactive) | GI50 (TK-10): > 100 µM (inactive) | GI50 (UO-31): > 100 µM (inactive)

O=[N+]([O-])c1nccn1COCCI
GI50 (A549): > 100 µM (inactive) | GI50 (CAKI-1): > 100 µM (inactive) | GI50 (EKVX): > 100 µM (inactive) | GI50 (HCT-15): > 100 µM | GI50 (M14): > 100 µM (inactive) | GI50 (MOLT-4): > 100 µM (inactive) | GI50 (NCI-H226): > 100 µM (inactive) | GI50 (NCI-H23): > 100 µM (inactive) | GI50 (OVCAR-3): > 100 µM (inactive) | GI50 (OVCAR-8): > 100 µM (inactive) | GI50 (RPMI-8226): > 100 µM (inactive) | GI50 (SF-295): > 100 µM (inactive) | GI50 (SK-MEL-28): > 100 µM (inactive) | GI50 (SK-MEL-5): > 100 µM (inactive) | GI50 (TK-10): > 100 µM (inactive) | GI50 (UO-31): > 100 µM (inactive)

CCOC(=O)Nc1ccc(S(=O)(=O)I)cc1.CCOC(=O)Nc1ccc(S(=O)(=O)I)cc1.CN(C=O)C1=C(N(C)C=O)C(N(C)C=O)=C(N(C)C=O)C(=O)C1=O
GI50 (A498): > 100 µM (inactive) | GI50 (A549): > 100 µM (inactive) | GI50 (CAKI-1): > 100 µM (inactive) | GI50 (HCT-15): > 100 µM | GI50 (M14): > 100 µM (inactive) | GI50 (MOLT-4): > 100 µM (inactive) | GI50 (NCI-H23): > 100 µM (inactive) | GI50 (OVCAR-8): > 100 µM (inactive) | GI50 (SF-295): > 100 µM (inactive) | GI50 (SK-MEL-28): > 100 µM (inactive) | GI50 (TK-10): > 100 µM (inactive) | GI50 (UO-31): > 100 µM (inactive)

Cc1ccccc1-n1c2nc(=O)n(C)c(=O)c-2nc2ccccc21
GI50 (A498): 31.8 µM (inactive) | GI50 (A549): 13.2 µM (inactive) | GI50 (CAKI-1): 24.4 µM (inactive) | GI50 (EKVX): 11.8 µM (inactive) | GI50 (HCT-15): 11.1 µM | GI50 (M14): 11 µM (inactive) | GI50 (MOLT-4): 17.8 µM (inactive) | GI50 (NCI-H226): 21 µM (inactive) | GI50 (NCI-H23): 10.1 µM (inactive) | GI50 (OVCAR-3): 2.33 µM (inactive) | GI50 (OVCAR-8): 12.2 µM (inactive) | GI50 (RPMI-8226): 16.3 µM (inactive) | GI50 (SF-295): 14.2 µM (inactive) | GI50 (SK-MEL-5): 10.6 µM (inactive) | GI50 (TK-10): 12.1 µM (inactive) | GI50 (UO-31): 29.1 µM (inactive)
